Assay results from patent US20120245137A1 (Zalicus Pharmaceuticals Ltd., priority 2009, published 2012).
Like-named read-outs stand apart in the source and are kept apart here.

Experiments:
Assay type in all cases: cell-based
Human Cav 2.2 channels = Human Cav 2.2 channels (Homo sapiens, UniProt Q00975); test: Fluorescent assay for CaV2.2 channels using potassium depolarization (VIPR/FLIPR); details: FLIPR data; for CAv2.2 IC50 Ratio closed/inact.: ratio closed/inactivated IC50
In short: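 HEK293 cells stably expressing human Cav2.2 with α2δ and β subunits plus Kir2.3 were loaded with fluo-4 and incubated 30 min at 25 °C with compound in 4, 12, 25 or 30 mM potassium buffer. Channels were opened with 70 mM potassium (final) and calcium influx was read by fluorescence (Ex 480/Em 535 nm).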

T-type calcium channel [1] = molecular target: T-type calcium channel (Homo sapiens, UniProt O43497); test: T-type channel blocking, FLIPR data (Table 6); details: CAv3.1
Description: (§1) Another method, high-throughput spectrophotometric assay, utilizes loading of the cell lines with a fluorescent dye sensitive to intracellular calcium concentration and subsequent examination of the effects of compounds on the ability of depolarization by potassium chloride or other means to alter intracellular calcium levels.

T-type calcium channel [2] = molecular target: T-type calcium channel (Homo sapiens, UniProt O95180); test: T-type channel blocking, FLIPR data (Table 6); details: for CAv3.2 IC50 Ratio closed/inact.: CAv3.2, ratio closed/inactivated IC50
Description: as §1

CAv1.2 = CAv1.2 (Homo sapiens, UniProt Q13936); test: FLIPR data, CAv1.2 channel blocking (Table 6); details: for CAv1.2 IC50 Ratio closed/inact.: ratio closed/inactivated IC50
[3] = closed state, read-out: CAv2.2 IC50 Closed
[4] = inactivated state, read-out: CAv2.2 IC50 Inact.
[5] = CAv3.2, closed state, read-out: CAv3.2 IC50 Closed
[6] = CAv3.2, inactivated state, read-out: CAv3.2 IC50 Inact.
[7] = closed state, read-out: CAv1.2 IC50 Closed
[8] = inactivated state, read-out: CAv1.2 IC50 Inact.

Chain of CAv1.2 (Q13936 whole entry): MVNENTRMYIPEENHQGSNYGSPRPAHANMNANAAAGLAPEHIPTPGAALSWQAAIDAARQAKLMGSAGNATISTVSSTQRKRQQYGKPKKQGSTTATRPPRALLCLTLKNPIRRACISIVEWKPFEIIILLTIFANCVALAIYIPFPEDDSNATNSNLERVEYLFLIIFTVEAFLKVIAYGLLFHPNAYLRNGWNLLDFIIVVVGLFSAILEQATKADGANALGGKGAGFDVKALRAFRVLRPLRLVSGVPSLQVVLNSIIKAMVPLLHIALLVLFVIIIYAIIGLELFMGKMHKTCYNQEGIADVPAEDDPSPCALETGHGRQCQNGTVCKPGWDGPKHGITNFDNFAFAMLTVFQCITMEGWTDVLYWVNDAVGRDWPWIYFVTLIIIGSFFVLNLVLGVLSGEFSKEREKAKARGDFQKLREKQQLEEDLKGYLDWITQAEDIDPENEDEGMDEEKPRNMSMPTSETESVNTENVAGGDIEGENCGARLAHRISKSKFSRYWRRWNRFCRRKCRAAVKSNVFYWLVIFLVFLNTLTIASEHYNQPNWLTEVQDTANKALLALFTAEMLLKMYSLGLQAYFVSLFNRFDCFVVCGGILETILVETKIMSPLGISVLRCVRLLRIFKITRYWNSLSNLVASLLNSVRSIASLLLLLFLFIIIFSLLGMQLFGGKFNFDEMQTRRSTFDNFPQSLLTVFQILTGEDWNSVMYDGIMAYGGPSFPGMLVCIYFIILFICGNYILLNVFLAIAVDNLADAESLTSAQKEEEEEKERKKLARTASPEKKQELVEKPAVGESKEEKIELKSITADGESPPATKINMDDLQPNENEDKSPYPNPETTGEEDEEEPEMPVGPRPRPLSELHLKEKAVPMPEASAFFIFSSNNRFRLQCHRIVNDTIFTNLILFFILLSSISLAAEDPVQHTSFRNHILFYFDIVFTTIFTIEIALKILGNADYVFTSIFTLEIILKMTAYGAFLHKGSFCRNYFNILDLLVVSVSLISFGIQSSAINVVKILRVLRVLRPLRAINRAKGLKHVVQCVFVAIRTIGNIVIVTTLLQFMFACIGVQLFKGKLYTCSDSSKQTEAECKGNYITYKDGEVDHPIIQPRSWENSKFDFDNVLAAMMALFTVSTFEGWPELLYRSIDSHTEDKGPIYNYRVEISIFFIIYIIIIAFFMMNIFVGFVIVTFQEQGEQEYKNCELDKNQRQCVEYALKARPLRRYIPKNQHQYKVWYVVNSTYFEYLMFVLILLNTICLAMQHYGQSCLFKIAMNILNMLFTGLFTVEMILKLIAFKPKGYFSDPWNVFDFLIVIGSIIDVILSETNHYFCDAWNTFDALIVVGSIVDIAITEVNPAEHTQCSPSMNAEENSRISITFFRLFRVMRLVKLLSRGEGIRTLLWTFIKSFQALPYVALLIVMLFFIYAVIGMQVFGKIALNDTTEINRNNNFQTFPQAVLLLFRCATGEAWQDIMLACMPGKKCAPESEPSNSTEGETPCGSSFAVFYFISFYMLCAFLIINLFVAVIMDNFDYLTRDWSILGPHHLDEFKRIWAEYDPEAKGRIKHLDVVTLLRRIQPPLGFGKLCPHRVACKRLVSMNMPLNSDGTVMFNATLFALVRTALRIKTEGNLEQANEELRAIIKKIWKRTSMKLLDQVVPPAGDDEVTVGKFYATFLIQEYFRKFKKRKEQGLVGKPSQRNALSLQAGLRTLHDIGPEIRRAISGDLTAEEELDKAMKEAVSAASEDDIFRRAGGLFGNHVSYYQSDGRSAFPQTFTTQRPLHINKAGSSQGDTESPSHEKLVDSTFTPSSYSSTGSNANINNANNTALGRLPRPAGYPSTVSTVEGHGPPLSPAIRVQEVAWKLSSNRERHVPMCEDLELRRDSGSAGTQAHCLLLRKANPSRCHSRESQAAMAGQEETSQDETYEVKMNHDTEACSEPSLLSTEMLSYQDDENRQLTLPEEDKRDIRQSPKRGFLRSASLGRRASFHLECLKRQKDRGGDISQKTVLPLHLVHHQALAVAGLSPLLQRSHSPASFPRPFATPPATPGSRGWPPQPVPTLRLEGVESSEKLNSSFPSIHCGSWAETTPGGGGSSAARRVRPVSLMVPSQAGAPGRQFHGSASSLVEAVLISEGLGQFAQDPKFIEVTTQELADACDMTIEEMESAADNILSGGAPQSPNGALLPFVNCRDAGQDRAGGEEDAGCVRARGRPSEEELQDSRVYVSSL
Chain of CAv1.2 (P54289 25-1103 partner): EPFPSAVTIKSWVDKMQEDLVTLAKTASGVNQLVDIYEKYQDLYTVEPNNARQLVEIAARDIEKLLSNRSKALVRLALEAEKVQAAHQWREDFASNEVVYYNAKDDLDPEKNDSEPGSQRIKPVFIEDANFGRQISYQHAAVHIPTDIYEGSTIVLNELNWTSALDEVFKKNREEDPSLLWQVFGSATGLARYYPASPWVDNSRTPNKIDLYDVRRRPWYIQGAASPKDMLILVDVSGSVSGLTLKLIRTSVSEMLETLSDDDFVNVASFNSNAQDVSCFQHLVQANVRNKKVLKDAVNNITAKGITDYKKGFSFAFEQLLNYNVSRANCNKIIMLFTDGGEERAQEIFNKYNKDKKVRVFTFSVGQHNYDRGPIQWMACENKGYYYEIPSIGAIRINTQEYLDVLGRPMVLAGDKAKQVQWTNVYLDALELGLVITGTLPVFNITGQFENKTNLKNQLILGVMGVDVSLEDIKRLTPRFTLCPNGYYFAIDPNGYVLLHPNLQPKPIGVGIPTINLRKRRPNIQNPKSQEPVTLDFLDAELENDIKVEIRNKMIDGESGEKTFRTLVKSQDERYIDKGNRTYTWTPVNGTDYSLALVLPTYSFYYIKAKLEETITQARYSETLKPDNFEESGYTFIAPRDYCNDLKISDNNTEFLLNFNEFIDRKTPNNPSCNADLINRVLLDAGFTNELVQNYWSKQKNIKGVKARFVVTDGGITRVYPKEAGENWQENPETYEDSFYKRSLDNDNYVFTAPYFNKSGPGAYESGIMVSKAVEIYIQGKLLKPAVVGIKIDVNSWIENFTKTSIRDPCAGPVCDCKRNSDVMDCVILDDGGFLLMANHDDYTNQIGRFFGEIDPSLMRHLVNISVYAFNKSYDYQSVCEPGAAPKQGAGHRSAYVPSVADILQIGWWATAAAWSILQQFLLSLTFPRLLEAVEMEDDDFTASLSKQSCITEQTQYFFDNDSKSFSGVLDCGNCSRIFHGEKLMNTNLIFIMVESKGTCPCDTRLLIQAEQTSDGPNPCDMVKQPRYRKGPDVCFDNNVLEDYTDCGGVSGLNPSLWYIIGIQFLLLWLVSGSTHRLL
Chain of CAv1.2 (Q08289 whole entry partner): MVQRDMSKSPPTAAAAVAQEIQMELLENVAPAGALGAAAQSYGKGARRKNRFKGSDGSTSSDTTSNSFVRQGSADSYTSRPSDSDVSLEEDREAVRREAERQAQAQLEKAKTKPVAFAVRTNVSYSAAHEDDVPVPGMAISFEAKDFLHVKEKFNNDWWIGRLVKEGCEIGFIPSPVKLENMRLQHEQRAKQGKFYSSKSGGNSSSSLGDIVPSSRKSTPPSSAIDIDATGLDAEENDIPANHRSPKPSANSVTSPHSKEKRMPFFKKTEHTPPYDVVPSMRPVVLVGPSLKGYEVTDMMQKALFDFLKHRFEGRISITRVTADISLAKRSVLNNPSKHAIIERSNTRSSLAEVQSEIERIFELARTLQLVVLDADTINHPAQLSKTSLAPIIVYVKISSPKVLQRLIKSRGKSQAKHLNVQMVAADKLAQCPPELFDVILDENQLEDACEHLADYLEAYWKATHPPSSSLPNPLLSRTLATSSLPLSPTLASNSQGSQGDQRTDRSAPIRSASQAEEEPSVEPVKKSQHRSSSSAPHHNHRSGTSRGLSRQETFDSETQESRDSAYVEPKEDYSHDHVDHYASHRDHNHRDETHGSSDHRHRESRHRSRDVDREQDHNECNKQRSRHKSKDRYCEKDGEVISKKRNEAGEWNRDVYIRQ

IC50 (Human Cav 2.2 channels; [3]) [µM]	IC50 (Human Cav 2.2 channels; [4]) [µM]	CAv2.2 IC50 Ratio closed/inact. (Human Cav 2.2 channels)	IC50 (T-type calcium channel [1]) [µM]	IC50 (T-type calcium channel [2]; [5]) [µM]	IC50 (T-type calcium channel [2]; [6]) [µM]	CAv3.2 IC50 Ratio closed/inact. (T-type calcium channel [2])	Structure (SMILES)	IC50 (CAv1.2; [7]) [µM]	IC50 (CAv1.2; [8]) [µM]	CAv1.2 IC50 Ratio closed/inact. (CAv1.2)
8.45	1.1	7.7	3.77	3.85	2.58	1.5	CC(C)([C@H]1C[C@@H](NS(=O)(=O)c2ccc(Cl)c(F)c2)C1)S(=O)(=O)c1cccc(C(F)(F)F)c1 [Compound 626]	9.15	5.4	1.7
2.06	0.19	10.8	2.3	0.63	0.57	1.1	CC(C)([C@H]1C[C@H](NC(=O)c2ccc(Cl)c(F)c2)C1)S(=O)(=O)c1cccc(OC(F)(F)F)c1 [Compound 633]	5.74	1.18	4.9
2	0.27	7.4	6.96	7.63	7.84	1	CC(C)([C@H]1C[C@H](NC(=O)c2ccnc(C(F)(F)F)n2)C1)S(=O)(=O)c1cccc(OC(F)(F)F)c1 [Compound 635]	≥ 10	7.63	1.3
10	1.65	6.1	≥ 10	≥ 10	8.75	1.1	O=C(NC[C@H]1C[C@H](S(=O)(=O)c2cc(F)cc(C(F)(F)F)c2)C1)c1ccc(C(F)(F)F)nc1 [Compound 704]	–	≥ 10	–
1.67	0.25	6.7	0.77	0.29	0.53	0.5	CC(C)([C@H]1C[C@@H](NC(=O)c2ccc(F)c(Cl)c2)C1)S(=O)(=O)c1cccc(OC(F)(F)F)c1 [Compound 641]	4.11	0.69	6
7.42	0.31	23.9	5.05	5.93	4.05	1.5	CC(C)([C@H]1C[C@H](NC(=O)c2ccnc(C(F)(F)F)c2)C1)S(=O)(=O)c1cccc(C(F)(F)F)c1 [Compound 672]	≥ 10	3.3	3
2.83	0.34	8.3	6.85	4.3	1.37	3.1	CC(C)([C@H]1C[C@@H](NC(=O)c2ccc(F)c(Cl)c2)C1)S(=O)(=O)c1cc(F)cc(C(F)(F)F)c1 [Compound 590]	5.33	1.7	3.1
2.49	0.4	6.2	1.26	0.7	0.92	0.8	CC(C)([C@H]1C[C@@H](NC(=O)c2ccc(Cl)c(F)c2)C1)S(=O)(=O)c1cccc(OC(F)(F)F)c1 [Compound 640]	4.9	1.43	3.4
8.56	0.44	19.5	≥ 10	≥ 10	9.9	1	CC(C)([C@H]1C[C@@H](NC(=O)c2ccc(C(F)(F)F)nc2)C1)S(=O)(=O)c1cccc(C(F)(F)F)c1 [Compound 576]	≥ 10	9.62	1
